System: diabetic wounds
Assay: Closure of full thickness flank skin wounds in diabetic mice, topical treatment
Assay type: in vivo, mice (C57BLKs/Bom db/db)
Conditions: for % wound area remaining relative to day 0 (mean ± standard error): six wounds
Procedure: Female diabetic mice (C57BLKs/Bom db/db; B&M, Denmark) aged approximately 16 weeks will be used in this study. On arrival mice were housed in groups of 5 to 10 according to Home Office regulations. On the first day of the study period, animals were housed in individual cages (cage dimensions 35×15×15 cm with sawdust bedding, changed twice weekly), in an environment maintained at an ambient temperature of 23° C. with 12-hour light/dark cycles. They were provided with food (Standard Rodent Diet) and water ad libitum. To acclimatise the animals to their surroundings, prior to experimentation, they were housed for a minimum of one week without disturbance, other than to refresh their bedding and to replenish their food and water provisions. Following wounding, animals were monitored until they had fully recovered from the procedure and then housed under individual conditions for the remainder of the study period. All animal procedures were carried out in a Home Office licensed establishment in accordance with Home Office Licence procedures. Animals were anaesthetised (halothane and air) and shaved. A single standardised full thickness wound (7.5 mm×7.5 mm) was created in the flank skin of each experimental animal. Wounds received, saline [50 μl], vehicle [50 μl pH 4.0 vehicle], 1 μg of p38 MAP kinase inhibitor [in 50 μl pH 4.0 vehicle] or 10 μg of p38 MAP kinase inhibitor [in 50 μl pH 4.0 vehicle]. The p38 MAP kinase inhibitor had the following formula: All wounds were secondarily dressed with a 1.5×1.5 cm pad of RELEASE dressing (Johnson & Johnson Wound Management). The RELEASE pad was held in place using a circumferential band of the occlusive film dressing Bioclusive (Johnson & Johnson Wound Management). Animals were re-anaesthetized and treatments re-applied on days 2, 4, 7, 9 and 11-post wounding. Immediately after wounding and subsequently on days 2, 4, 7, 9, 11 and 14 all wounds were digitally photographed together with a calibration/identity plate. On day 14 of the study animals will be euthanised. Image Pro image analysis software (version 4.1.0.0, Media Cybernetics, USA) was used to calculate wound closure from wound images in each of the experimental groups over time. Non-parametric analysis (Kruskal Wallis—Multivariate Analysis followed by ad hoc two sample Mann Whitney U-test analysis) will be used to test the significance of any inter-group differences in wound closure.

SMILES: CC(=O)N1CCN(c2c(-c3ccncc3)c(-c3ccc(F)cc3)c(C#N)n2C)CC1 [p38 MAP kinase inhibitor]
- % wound area remaining relative to day 0 (mean ± standard error) (1.0 μg per wound in 50 μl pH 4.0 vehicle, day 2 post-wounding): 86.15 ± 6.63%
- % wound area remaining relative to day 0 (mean ± standard error) (1.0 μg per wound in 50 μl pH 4.0 vehicle, day 4 post-wounding): 66.32 ± 6.58%
- % wound area remaining relative to day 0 (mean ± standard error) (1.0 μg per wound in 50 μl pH 4.0 vehicle, day 7 post-wounding): 38.65 ± 2.62%
- % wound area remaining relative to day 0 (mean ± standard error) (1.0 μg per wound in 50 μl pH 4.0 vehicle, day 9 post-wounding): 18.87 ± 4.44%
- % wound area remaining relative to day 0 (mean ± standard error) (1.0 μg per wound in 50 μl pH 4.0 vehicle, day 11 post-wounding): 6.03 ± 2.17%
- % wound area remaining relative to day 0 (mean ± standard error) (10.0 μg per wound in 50 μl pH 4.0 vehicle, day 2 post-wounding): 75.48 ± 6.32%
- % wound area remaining relative to day 0 (mean ± standard error) (10.0 μg per wound in 50 μl pH 4.0 vehicle, day 4 post-wounding): 58.34 ± 6.49%
- % wound area remaining relative to day 0 (mean ± standard error) (10.0 μg per wound in 50 μl pH 4.0 vehicle, day 7 post-wounding): 29.80 ± 4.66%
- % wound area remaining relative to day 0 (mean ± standard error) (10.0 μg per wound in 50 μl pH 4.0 vehicle, day 9 post-wounding): 13.31 ± 1.64%
- % wound area remaining relative to day 0 (mean ± standard error) (10.0 μg per wound in 50 μl pH 4.0 vehicle, day 11 post-wounding): 3.34 ± 0.96%
- closure compared to saline treatment (10.0 μg, day 2, 7, 11 p=0.055, day 9 p=0.025 (statistically significant)): noticeably more rapid
- wound size compared to citrate treated wounds (10.0 μg, day 9 and day 11 assessment points): statistically smaller
- closure of diabetic wounds compared to treatment with the vehicle (versus Citrate Buffer, pH 4.0, effect most apparent for the highest dose): appeared to accelerate the closure of diabetic wounds

Source: patent US8957076B2, “Wound healing” (Systagenix Wound Management (US), Inc., priority 2004, dated 2015)
